Paper PMC6940354, “Comparative Assessment of the New PDE7 Inhibitor – GRMS-55 and Lisofylline in Animal Models of Immune-Related Disorders: A PK/PD Modeling Approach” (Pharmaceutical Research, 2020)
In brackets after ≈: the same amount, converted by molar mass. Like-named read-outs stand apart in the source and are kept apart here.

Assays:
[1] = test system: collagen-induced arthritis (CIA) in female Lewis rats; assay: Collagen-induced arthritis in rats, paw swelling, PK/PD/DIS progression model; format: in vivo, rat; settings: for decrease of relative paw swelling: at the last observation time point, once daily from day 20: rolipram 10 mg kg^−1 IP, GRMS-55 50 mg kg^−1 IP, (±)-LSF 80 mg kg^−1 SC
Experimental: The emulsion of collagen was prepared according to the Protocol for the Successful Induction of Collagen-Induced Arthritis (CIA) in Rats (Chondrex Inc., 2015). Porcine type II collagen dissolved in 0.05 M acetic acid was emulsified with incomplete Freund’s adiuvant (Sigma Aldrich, Germany) using an Omni TH Homogenizer (Omni International, Inc., USA) consisting of a blade with 5 mm diameter. The collagen solution was previously mixed with IFA at a low speed for 1 min and then at the highest speed for 2 min. Then emulsion was being cooled for 5 min in an ice water bath. The emulsification process was repeated 3 times to obtain a stiff emulsion. The emulsion was then transferred into a Hamilton glass syringe, kept at 4°C, and used within 2 h.
At a day 0 of the experiment animals were subcutaneously (SC) injected at the base of the tail with 200 μL of the emulsion using a 27 gauge × 5/8″ needle and Hamilton syringe. At day 7 after the initial immunization, a booster injection with 100 μL of emulsion was performed. Ninety % of rats developed symptoms of disease (paw swelling >150% of day 0) at day 20 of the experiment. At this day, diseased animals were randomly divided into five groups (n = 6). […] One investigated group received (±)-LSF dissolved in saline at an SC dose of 80 mg kg^−1 once daily. The corresponding control groups were administered with appropriate volumes of vehicles IP or SC. At day 40 animals were sacrificed. Hind paws of rats were taken and immersed into 4% buffered formalin solution for a subsequent histological analysis. Blood samples were collected and allowed to clot for 20 min and then centrifuged at 2000 x g for 15 min. Serum samples were collected and frozen at -80°C.
Paw edema of arthritic rats was assessed as swelling of the rat hind paws. Measurements of paws were performed using a digital caliper according to the procedure described by Earp et al. ([18]). Each hind leg was measured at two sections, i.e., paw and ankle, and each section was measured at two places (side-to-side and top-to-bottom). The area of each section (elliptical in shape) was calculated from the following equation:2 Area=π·a·b/4 where (a) is side-to-side diameter of the ellipse and (b) is top-to-bottom diameter of the ellipse. Paw and ankle section areas of each leg were subsequently added to obtain one overall measure for the rat hind paw (Areaoverall). Each of these measures was normalized to the same hind paw area measured at day 0 of the experiment (Areazero) to reduce variation in the disease progression resulting from differences in paw size of each rat. Relative paw swelling (Paw) was calculated according to the equation:3 Paw=Areaoverall/Areazero
Paw size was measured at days 0, 5, 7, 11, 15, 18, 20, 22, 26, 30, 33, and 36 after the first immunization. […]

[2] = Pharmacokinetics in female Lewis rats; format: in vivo, rat; settings: for fraction of the dose absorbed (F): calculated from Eq. 4
Experimental: The same vehicles as these in pharmacodynamic studies for each compound and route of administration were used. Rats were implanted with catheters into the jugular vein and after a two-day period they were administered with the investigated compounds by the listed above routes of administration. […] Samples were subsequently centrifuged at 3000 × g for 10 min. Plasma was stored at −80°C until analysis.
A detailed description of these methods has been provided in the supplementary materials.
Firstly, the concentration-time data collected for each individual compound from one of the investigated rat strains (Wistar or Lewis) were subjected to a non-compartmental analysis (NCA). Subsequently, pharmacokinetic models were developed for each investigated compound and strain of rat. One- and two- compartment models with linear or non-linear elimination were tested. […] The final models were chosen based on the goodness-of-fit criteria, such as Akaike Information Criterion (AIC), Schwarz Bayesian Criterion (SBC), weighted sum of squared residuals (WSSR), a visual inspection of fitting, and precision of estimated parameters expressed as coefficients of variation % (CVs%). NCA analysis was performed in Phoenix WinNonlin v. 7.0 (Pharsight Corp., a Certara Company, Princeton, New Jersey). Pharmacokinetic model parameters were estimated in ADAPT 5 software (BMSR, Los Angeles, CA) using the weighted least squares algorithm. Fraction of the dose absorbed (F) following an extravascular (EV) administration was calculated according to the Eq. 4:4 F=AUC0−tEV·DIV/AUC0−tIV·DEV where AUC0-t is the area under concentration versus time curve from 0 to the last measured point and D is dose.
The route of (±)-LSF administration was selected based on the results of our recent study, where SC route of administration was recognized as the most preferential for this compound ([20]). The concentration-time data for each of the investigated compounds were simultaneously fitted to obtain a single set of pharmacokinetic parameters.
The remaining symbols and parameters have been explained and defined in Fig. 2 and Table II.
Then, the samples were extracted with 1 mL of dichloromethane for 20 min using a VXR Vibrax shaker (IKA, Germany). Subsequently, all tubes were centrifuged (10 000×g, 8 min) using EBA 12 R centrifuge (Hettich, Germany). Organic layers were collected and transferred to clear propylene tubes and evaporated in water bath under a gentle stream of nitrogen at 37°C. Dry residues were then dissolved in 100 μL of mobile phase and subjected to the HPLC analysis. The HPLC system (LaChrom Elite, Merck-Hitachi, Germany) consisted of an L-2130 pump, an L-2200 autosampler, and an L-2420 UV-VIS detector. EZChrome Elite v. 3.2 (Merck-Hitachi, Germany) computer program was used for data acquisition and integration. The separation of GRMS-55 was performed using a LiChrospher 100 RP-18 (250×4 mm) column with a particle size of 5 μm protected with a LiChroCART (4×4 mm, RP-18) guard column (Merck, Germany). […] The separation of both investigated compounds was performed at ambient temperature. […] In turn, the retention time of GRMS-55 was 9.2 min. and that of its IS was 5.3 min.

[3] = Rattus norvegicus, 480 h, read-out: IC50, concentration producing 50% of maximal inhibition (CIA progression), Final estimate (CV%)
[4] = rat, plasma, other: GRMS-55 IV and IP, rolipram IP, female Lewis rats, read-out: half-life calculated as ln2·V1/Clt (elimination half-life)

SMILES | decrease of relative paw swelling [1] [%] | fraction of the dose absorbed (F) ([2]; female Lewis rats, SC administration) [%] | volume of distribution, times lower in female Lewis rats compared to male Wistar rats ([2]; female Lewis vs male Wistar rats) [times] | half-life ([2]; rat, plasma, 80 mg kg^-1, female Lewis rats, SC administration, flip-flop pharmacokinetics, read-out: plasma terminal half-life) [min] | Vd ([2]; rat, plasma, other: IV and SC, female Lewis rats, (±)-LSF IV 40 and SC 80 mg kg^−1, read-out: VLSF, volume of distribution of (±)-LSF, Estimate (CV%)) [L/kg] | k el ([2]; rat, plasma, other: IV and SC, female Lewis rats, (±)-LSF IV and SC, read-out: kd, overall parent elimination rate constant, Estimate (CV%) (converted)) [s⁻¹] | IC50 at 50 mg/kg [1, 3] [µg/mL] | fraction of the dose absorbed (F) ([2]; female Lewis rats, IP administration) [%] | half-life [2, 4] [min] | IC50 [1, 3] [µg/mL] | Vd/F ([2]; female, Lewis, rat, plasma, ip, 10 mg/kg, read-out: V(ROL)/F, volume of distribution divided by fraction absorbed, Estimate (CV%)) [L/kg]
CC(O)CCCCn1c(=O)c2c(ncn2C)n(C)c1=O (racemic) [(±)-LSF, lisofylline] | 30.5 | 95 | 3.3 | 23 | 0.37 | 0.00353 |  |  |  |  | 
Cn1c(=O)c2c(nc(NCCc3ccccc3)n2CCCC(=O)NN=Cc2ccccc2O)n(C)c1=O [GRMS-55, 4-(1,3-Dimethyl-2,6-dioxo-8-(phenethylamino)-2,3,6,7-tetrahydro-1H-purin-7-yl)-N′-(2-hydroxybenzylidene)butanehydrazide] | 31.5 |  |  |  |  |  | 0.26 (≈ 0.516 µM) | 23 | 21 |  | 
COc1ccc(C2CNC(=O)C2)cc1OC1CCCC1 (stereo not shown) [Rolipram, rolipram] |  |  |  |  |  |  |  |  | 30 | 0.01 (≈ 0.0363 µM) | 1.02
